# According to US10532995B2, “Substituted pyrazole compounds as serine protease inhibitors” (VERSEON CORPORATION, priority 2015, dated 2020):
# Biological target: T1, Human thrombin (Homo sapiens, UniProt P00734)
# T1 construct: purchased Haematologic Technologies Inc
# Assay: Thrombin protease activity inhibition, chromogenic substrate S-2238
# Assay type: biochemical
# Conditions: 3 nM thrombin, 125 μM S-2238, 10 min pre-incubation, RT
# In short: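 Ten-point, three-fold serial dilutions of compound tested against 3 nM enzyme at RT in Tris buffer (0.05 M, pH 7.4) with 0.015 M NaCl and 0.01% PEG-8000.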
row,SMILES,IC50 [µM]
1,"Clc1ccc(CNc2cc(C3CCN(CCc4ccccn4)CC3)n[nH]2)s1 [Entry 224, N-[(5-chlorothiophen-2-yl)methyl]-3-1-[2-(pyridin-2-yl)ethyl]piperidin-4-yl-1H-pyrazol-5-amine]",> 100
2,"CS(=O)(=O)N1C2CCC1CC(c1cc(NCc3ccc(Cl)s3)n(C(=O)c3cscn3)n1)C2 (centres unmarked) [Entry 225, N-[(5-chlorothiophen-2-yl)methyl]-3-8-methanesulfonyl-8-azabicyclo[3.2.1]octan-3-yl-1-(1,3-thiazole-4-carbonyl)-1H-pyrazol-5-amine]",< 0.1
3,"CS(=O)(=O)N1C2CCC1CC(c1cc(NCc3ccc(Cl)s3)[nH]n1)C2 (centres unmarked) [Entry 226, N-[(5-chlorothiophen-2-yl)methyl]-3-8-methanesulfonyl-8-azabicyclo[3.2.1]octan-3-yl-1H-pyrazol-5-amine]",> 100
4,"CC1(C(=O)n2nc(C3CCOCC3)c(F)c2NCc2ccc(Cl)s2)CCOCC1 [Entry 229, N-[(5-chlorothiophen-2-yl)methyl]-4-fluoro-1-(4-methyloxane-4-carbonyl)-3-(oxan-4-yl)-1H-pyrazol-5-amine]",< 0.1
5,"Cc1c(C2CCN(C(=O)c3cscn3)CC2)n[nH]c1NCc1ccc(Cl)s1 [Entry 236, N-[(5-chlorothiophen-2-yl)methyl]-4-methyl-3-[1-(1,3-thiazole-4-carbonyl)piperidin-4-yl]-1H-pyrazol-5-amine]",> 100
6,"Cc1c(C2CCN(C(=O)N3CCOCC3)CC2)n[nH]c1NCc1ccc(Cl)s1 [Entry 237, N-[(5-chlorothiophen-2-yl)methyl]-4-methyl-3-[1-(morpholine-4-carbonyl)piperidin-4-yl]-1H-pyrazol-5-amine]",10 to 100
7,"O=S(=O)(N1CCOCC1)N1CCC(c2cc(N(Cc3ccc(Cl)s3)S(=O)(=O)N3CCOCC3)[nH]n2)CC1 [Entry 238, N-[(5-chlorothiophen-2-yl)methyl]-N-3-[1-(morpholine-4-sulfonyl)piperidin-4-yl]-1H-pyrazol-5-ylmorpholine-4-sulfonamide]",1 to 10
8,"C=CCOC(=O)N1CCN(C(=O)N2CCOCC2)CC1c1cc(NCc2ccc(Cl)s2)n(C(=O)c2cscn2)n1 (centres unmarked) [Entry 240, prop-2-en-1-yl 2-(5-[(5-chlorothiophen-2-yl)methyl]amino-1-(1,3-thiazole-4-carbonyl)-1H-pyrazol-3-yl)-4-(morpholine-4-carbonyl)piperazine-1-carboxylate]",0.1 to 1
9,"C=CCOC(=O)N1CCN(C(=O)CN2CCOCC2)CC1c1cc(NCc2ccc(Cl)s2)n(C(=O)c2cscn2)n1 (centres unmarked) [Entry 241, prop-2-en-1-yl 2-(5-[(5-chlorothiophen-2-yl)methyl]amino-1-(1,3-thiazole-4-carbonyl)-1H-pyrazol-3-yl)-4-[2-(morpholin-4-yl)acetyl]piperazine-1-carboxylate]",0.1 to 1
10,"C=CCOC(=O)N1CCN(S(C)(=O)=O)CC1c1cc(NCc2ccc(Cl)s2)n(C(=O)c2cscn2)n1 (centres unmarked) [Entry 242, prop-2-en-1-yl 2-(5-[(5-chlorothiophen-2-yl)methyl]amino-1-(1,3-thiazole-4-carbonyl)-1H-pyrazol-3-yl)-4-methanesulfonylpiperazine-1-carboxylate]",0.1 to 1
11,"C=CCOC(=O)N1CCCC1c1cc(NCc2ccc(Cl)s2)n(C(=O)c2cscn2)n1 (centres unmarked) [Entry 243, prop-2-en-1-yl 2-(5-[(5-chlorothiophen-2-yl)methyl]amino-1-(1,3-thiazole-4-carbonyl)-1H-pyrazol-3-yl)pyrrolidine-1-carboxylate]",< 0.1
12,"C=CCOC(=O)N1CCN(C(=O)N2CCOCC2)CC1c1cc(NCc2ccc(Cl)s2)n(C(=O)C(C)(C)C)n1 (centres unmarked) [Entry 244, prop-2-en-1-yl 2-(5-[(5-chlorothiophen-2-yl)methyl]amino-1-(2,2-dimethylpropanoyl)-1H-pyrazol-3-yl)-4-(morpholine-4-carbonyl)piperazine-1-carboxylate]",1 to 10
13,"C=CCOC(=O)N1CCN(C(=O)CN2CCOCC2)CC1c1cc(NCc2ccc(Cl)s2)n(C(=O)C(C)(C)C)n1 (centres unmarked) [Entry 245, prop-2-en-1-yl 2-(5-[(5-chlorothiophen-2-yl)methyl]amino-1-(2,2-dimethylpropanoyl)-1H-pyrazol-3-yl)-4-[2-(morpholin-4-yl)acetyl]piperazine-1-carboxylate]",1 to 10
14,"C=CCOC(=O)N1CCN(S(C)(=O)=O)CC1c1cc(NCc2ccc(Cl)s2)n(C(=O)C(C)(C)C)n1 (centres unmarked) [Entry 246, prop-2-en-1-yl 2-(5-[(5-chlorothiophen-2-yl)methyl]amino-1-(2,2-dimethylpropanoyl)-1H-pyrazol-3-yl)-4-methanesulfonylpiperazine-1-carboxylate]",> 100
15,"C=CCOC(=O)N1CCCC1c1cc(NCc2ccc(Cl)s2)n(C(=O)C(C)(C)C)n1 (centres unmarked) [Entry 247, prop-2-en-1-yl 2-(5-[(5-chlorothiophen-2-yl)methyl]amino-1-(2,2-dimethylpropanoyl)-1H-pyrazol-3-yl)pyrrolidine-1-carboxylate]",< 0.1
16,"C=CCOC(=O)N1CCN(CC(F)(F)F)CC1c1cc(NCc2ccc(Cl)s2)[nH]n1 (centres unmarked) [Entry 248, prop-2-en-1-yl 2-(5-[(5-chlorothiophen-2-yl)methyl]amino-1H-pyrazol-3-yl)-4-(2,2,2-trifluoroethyl)piperazine-1-carboxylate]",> 100

row,SMILES,IC50 [µM]
1,"C=CCOC(=O)N1CCN(C(=O)N2CCOCC2)CC1c1cc(NCc2ccc(Cl)s2)[nH]n1 (centres unmarked) [Entry 249, prop-2-en-1-yl 2-(5-[(5-chlorothiophen-2-yl)methyl]amino-1H-pyrazol-3-yl)-4-(morpholine-4-carbonyl)piperazine-1-carboxylate]",> 100
2,"C=CCOC(=O)N1CCN(S(=O)(=O)N2CCOCC2)CC1c1cc(NCc2ccc(Cl)s2)[nH]n1 (centres unmarked) [Entry 250, prop-2-en-1-yl 2-(5-[(5-chlorothiophen-2-yl)methyl]amino-1H-pyrazol-3-yl)-4-(morpholine-4-sulfonyl)piperazine-1-carboxylate]",> 100
3,"C=CCOC(=O)N1CCN(C(=O)CN2CCOCC2)CC1c1cc(NCc2ccc(Cl)s2)[nH]n1 (centres unmarked) [Entry 251, prop-2-en-1-yl 2-(5-[(5-chlorothiophen-2-yl)methyl]amino-1H-pyrazol-3-yl)-4-[2-(morpholin-4-yl)acetyl]piperazine-1-carboxylate]",> 100
4,"C=CCOC(=O)N1CCN(S(C)(=O)=O)CC1c1cc(NCc2ccc(Cl)s2)[nH]n1 (centres unmarked) [Entry 252, prop-2-en-1-yl 2-(5-[(5-chlorothiophen-2-yl)methyl]amino-1H-pyrazol-3-yl)-4-methanesulfonylpiperazine-1-carboxylate]",> 100
5,"C=CCOC(=O)N1CCCC1c1cc(NCc2ccc(Cl)s2)[nH]n1 (centres unmarked) [Entry 253, prop-2-en-1-yl 2-(5-[(5-chlorothiophen-2-yl)methyl]amino-1H-pyrazol-3-yl)pyrrolidine-1-carboxylate]",> 100
6,"C=CCOC(=O)N1C2CCC1CC(c1cc(NCc3ccc(Cl)s3)n(C(=O)C(C)(C)C)n1)C2 (centres unmarked) [Entry 254, prop-2-en-1-yl 3-(5-[(5-chlorothiophen-2-yl)methyl]amino-1-(2,2-dimethylpropanoyl)-1H-pyrazol-3-yl)-8-azabicyclo[3.2.1]octane-8-carboxylate]",< 0.1
7,"C=CCOC(=O)N1CC(c2cc(NCc3ccc(Cl)s3)n(C(=O)C(C)(C)C)n2)C1 [Entry 255, prop-2-en-1-yl 3-(5-[(5-chlorothiophen-2-yl)methyl]amino-1-(2,2-dimethylpropanoyl)-1H-pyrazol-3-yl)azetidine-1-carboxylate]",< 0.1
8,"C=CCOC(=O)N1CCC(c2cc(NCc3ccc(Cl)s3)n(C(=O)C(C)(C)C)n2)C1 (centres unmarked) [Entry 256, prop-2-en-1-yl 3-(5-[(5-chlorothiophen-2-yl)methyl]amino-1-(2,2-dimethylpropanoyl)-1H-pyrazol-3-yl)pyrrolidine-1-carboxylate]",< 0.1
9,"C=CCOC(=O)N1C2CCC1CC(c1cc(NCc3ccc(Cl)s3)[nH]n1)C2 (centres unmarked) [Entry 257, prop-2-en-1-yl 3-(5-[(5-chlorothiophen-2-yl)methyl]amino-1H-pyrazol-3-yl)-8-azabicyclo[3.2.1]octane-8-carboxylate]",10 to 100
10,"C=CCOC(=O)N1CC(c2cc(NCc3ccc(Cl)s3)[nH]n2)C1 [Entry 258, prop-2-en-1-yl 3-(5-[(5-chlorothiophen-2-yl)methyl]amino-1H-pyrazol-3-yl)azetidine-1-carboxylate]",10 to 100
11,"C=CCOC(=O)N1CCC(c2cc(NCc3ccc(Cl)s3)[nH]n2)C1 (centres unmarked) [Entry 259, prop-2-en-1-yl 3-(5-[(5-chlorothiophen-2-yl)methyl]amino-1H-pyrazol-3-yl)pyrrolidine-1-carboxylate]",> 100
12,"C=CCOC(=O)N1CCCC(c2cc(NCc3ccc(Cl)s3)n(C(=O)c3cscn3)n2)CC1 (centres unmarked) [Entry 260, prop-2-en-1-yl 4-(5-[(5-chlorothiophen-2-yl)methyl]amino-1-(1,3-thiazole-4-carbonyl)-1H-pyrazol-3-yl)azepane-1-carboxylate]",< 0.1
13,"C=CCOC(=O)N1CCCC(c2cc(NCc3ccc(Cl)s3)n(C(=O)C(C)(C)C)n2)CC1 (centres unmarked) [Entry 261, prop-2-en-1-yl 4-(5-[(5-chlorothiophen-2-yl)methyl]amino-1-(2,2-dimethylpropanoyl)-1H-pyrazol-3-yl)azepane-1-carboxylate]",< 0.1
14,"C=CCOC(=O)N1CCC(c2cc(NCc3ccc(Cl)s3)n(C(=O)C(C)(C)C)n2)CC1 [Entry 262, prop-2-en-1-yl 4-(5-[(5-chlorothiophen-2-yl)methyl]amino-1-(2,2-dimethylpropanoyl)-1H-pyrazol-3-yl)piperidine-1-carboxylate]",< 0.1
15,"C=CCOC(=O)N1CCC(c2nn(C(=O)C(C)(C)C)c(NCc3ccc(Cl)s3)c2F)CC1 [Entry 263, prop-2-en-1-yl 4-(5-[(5-chlorothiophen-2-yl)methyl]amino-1-(2,2-dimethylpropanoyl)-4-fluoro-1H-pyrazol-3-yl)piperidine-1-carboxylate]",< 0.1
16,"C=CCOC(=O)N1CCC(c2nn(C(=O)C(C)(C)C)c(NCc3ccc(Cl)s3)c2C)CC1 [Entry 264, prop-2-en-1-yl 4-(5-[(5-chlorothiophen-2-yl)methyl]amino-1-(2,2-dimethylpropanoyl)-4-methyl-1H-pyrazol-3-yl)piperidine-1-carboxylate]",< 0.1
